Experimental data reported in US8796302B2 (priority 2004, dated 2014).

Assays:
superoxide = experiment: Superoxide release (SOD-inhibitable cytochrome c reduction) after LPS; type: cell-based, rat; conditions: 10^−14 M, enriched-microglia cultures, LPS 10 ng/ml
Protocol: The release of superoxide was determined by measuring the superoxide dismutase (SOD)-inhibitable reduction of cytochrome c. To measure the immediate release of superoxide from microglia-enriched or neuron-glia after stimulation, cultures grown in 96-well plates were switched to phenol red-free HBSS (50 μl/well). To each well was added 50 μl of HBSS containing vehicle or DM. The cultures were then incubated at about 37° C. for about 30 min followed by 50 μl of ferricytochrome c (100 μM) in HBSS, with and without 600 U/ml SOD, 50 μl of vehicle or LPS in HBSS. The absorbance at 550 nm was read with a SpectraMax Plus microplate spectrophotometer (Molecular Devices, Sunnyvale, Calif.).
This example tests whether or not post-treatment with DM is still neuroprotective in LPS-induced neurotoxicity. Neuron-glia co-cultures as prepared in Example 1 were first treated with LPS (20 ng/ml) for twelve hours, and then LPS was removed by removing the media from the cultures and washing twice with PBS. Different concentrations of DM (10^−5, 10^−10, and 10^−14 M) were then added to the cultures and incubation was continued for another 6 or 7 days. The DA uptake and the superoxide production were measured as in Example 1 and 5. Results are expressed as a percentage of the control cultures and are the mean±S.E.M of three to six experiments with triplicates in each experiment. ##, P<0.01 compared with control culture; *, P<0.05 compared with the LPS-treated culture.
Primary enriched-microglia cultures were prepared as in Example 1. […] The intracellular ROS concentrations and superoxide amounts were measured as in Example 5. The data are expressed as the percent of the control cultures and are the mean±SEM of three experiments performed in triplicate. *P<0.05, **P<0.01, compared to control.

[1] = test system: dopaminergic neurons in PHOX^+/+ and PHOX^−/− mouse neuron-glia cultures; experiment: [3H]DA uptake in neuron-glia cultures of PHOX+/+ and PHOX−/− mice; type: cell-based; conditions: PHOX−/− cultures, 10^−13-10^−14 M, LPS 5 ng/ml
Protocol: To further study the role of ROS in DM-elicited neuroprotection, neuron-glia cultures were prepared from NADPH oxidase-deficient (PHOX^−/−) and wild-type (PHOX^+/+) mice.
(§1) Neurotoxicity was assessed by DA uptake as described in Example 1. TNFα production was measured by ELISA and iROS was determined by DCFDA as in Example 5. Results are expressed as a percentage of the control culture in FIG. 7A, pg/ml in FIG. 7B, and difference from control in FIG. 7C, respectively, and are the mean±S.E.M. of five individual experiments with triplicates in each experiment. *, P<0.05 compared with LPS culture.
(§2) The rat and mouse ventral mesencephalic neuron-glia cultures were prepared as in Example 1. […] DA neurotoxicity was measured by using the [^3H] DA uptake assay as in Example 1. The data are expressed as the percent of the control cultures and are the mean±SEM. The release of TNFα was measured with a commercially available enzyme-linked immunosorbent assay kit. *P<0.05, **P<0.01, compared to control. The amount of TNFα was measured as in Example 2.

[2] = test system: dopaminergic neurons in rat primary mesencephalic neuron-glia cultures; experiment: [3H]DA uptake in LPS-treated mesencephalic neuron-glia cultures; type: cell-based; conditions: femtomolar concentrations, LPS 5 ng/ml
[3] = test system: intracellular reactive oxygen species; experiment: Intracellular ROS (DCFH oxidation) after LPS; type: cell-based, rat; conditions: 10^−14 M, enriched-microglia cultures, LPS 10 ng/ml
Protocol: The production of intracellular reactive oxygen species was measured by DCFH oxidation. The DCFH-DA (Molecular Probes, Eugene, Oreg.) reagent passively diffuses into cells in which it is hydrolyzed by intracellular esterase to liberate 2′-7′-dichlorofluoressein which, during reaction with oxidizing species, yields a highly fluorescent compound 2′-7′-dichlorofluorescein (DCF) that is trapped inside the cell. For each measurement, a fresh stock solution of CM-H2-DCFDA (5 mM) was prepared in dimethylsulfoxide. CM-H2-DCFDA, diluted to a final concentration of 1 μM in phenol red-free HBSS containing 2% FBS and 2% HS, was added to cultures and incubated for about 30 min at about 37° C. After washing two times with warm HBSS, vehicle or stimulators in HBSS were added to cultures. After incubation for about 30 min at about 37° C., fluorescence intensity was measured at 485 nm for excitation and 530 nm for emission using a SpectraMax Gemini XS fluorescence microplate reader (Molecular Devices).
Assay of intracellular ROS is performed as follows. 5-(and −6)-Chloromethyl-2′,7′-dichlorodihydrofluorescein diacetate (CM-H2-DCFDA) (Molecular Probes, Eugene, Oreg.), a chloromethyl derivative of H2-DCFDA, passively diffuses into cells in which it is hydrolyzed by intracellular esterases to liberate 2′-7′-dichlorofluorescein (DCF) which, during reaction with oxidizing species, yields a highly fluorescent compound that is trapped inside the cell. […] Cells were seeded at 1×10^5/well in 96-well plates for one day followed by treatment with 0.6 mM or 1.2 mM VPA for 24 h. The cultures were used for the assay of intracellular ROS.
After washing two times with warm Hank's balanced salt solution (HBSS), CM-H2-DCFDA, diluted to a final concentration of 1 μM in phenol red-free HBSS, was added to cultures and incubated for 30 min at 37° C. Then cultures were added with 0.6 or 1.2 mM VPA in HBSS again for 30 min and followed the treatment with 100 ng/ml LPS for 2 hours at 37° C., fluorescence intensity was measured at 485 nm for excitation and 530 nm for emission using a SpectraMax Gemini XS fluorescence microplate reader (Molecular Devices, Sunnyvale, Calif.).

TNFα = TNFα production in neuron-glia cultures of PHOX+/+ and PHOX−/− mice; type: cell-based, mouse; conditions: LPS 5 ng/ml
Protocol: as §1, §2

[4] = test system: dopaminergic neurons in rat primary mesencephalic neuron-glia cultures; experiment: [3H]DA uptake in LPS-treated mesencephalic neuron-glia cultures; type: cell-based; conditions: LPS 5 ng/ml; for concentration of greatest level of protection (DA uptake): 10^−12-10^−16 M tested; for enhancement of [3H]DA uptake after exposure to LPS: 30 min pretreatment, 7 days
Protocol: Neuron-glia cultures were prepared from the ventral mesencephalic tissues of embryonic day 13-14 Fisher F344 rats or day 12-13 wild-type C57BL/6J (gp91phox^+/+) mice. Dissociated cells were seeded at 1×10^5/well and 5×10^5/well to poly-D-lysine-coated 96-well and 24-well plates, respectively. Cells were maintained at about 37° C. in a humidified atmosphere of 5% CO2 and 95% air, in minimal essential medium (MEM) containing 10% fetal bovine serum (FBS), 10% horse serum (HS), 1 gm/l glucose, 2 mM L-glutamine, 1 mM sodium pyruvate, 100 μM nonessential amino acids, 50 U/ml penicillin, and 50 μg/ml streptomycin. Seven-day-old cultures were used for treatment.
Dextromethorphan (obtained from Sigma-Aldrich (St. Louis, Mo.) as dextromethorphan hydrobromide) was freshly prepared as a stock solution (1 mM) in ddH2O and sterile-filtered right before use. For treatment of the cultures, the DM was serially diluted (10×) with fresh culture medium containing 2% of fetal bovine and horse serum. The neuron-glia cultures were pretreated with 10^−5-10^−17M DM 30 minutes prior to treatment with 10 ng/ml of LPS.
Seven days after treatment, the degeneration of dopaminergic neurons was assessed by [^3H]-dopamine (DA) uptake assays. The [^3H]-DA uptake assays were performed as follows. Cultures were washed twice with warm Krebs-Ringer buffer (KRB, 16 mM sodium phosphate, 119 mM NaCl, 4.7 mM KCl, 1.8 mM CaCl2, 1.2 mM MgSO4, 1.3 mM EDTA, and 5.6 mM glucose; pH7.4) and then incubated for about 20 minutes at about 37° C. with 1 μM [^3H]-DA in KRB in order to allow for the uptake of DA. Afterwards, the cultures were washed (three times) with ice-cold KRB and the cells were collected in 1 N NaOH. Radioactivity was determined by liquid scintillation counting.
This example tests whether or not post-treatment with DM is still neuroprotective in LPS-induced neurotoxicity. Neuron-glia co-cultures as prepared in Example 1 were first treated with LPS (20 ng/ml) for twelve hours, and then LPS was removed by removing the media from the cultures and washing twice with PBS. Different concentrations of DM (10^−5, 10^−10, and 10^−14 M) were then added to the cultures and incubation was continued for another 6 or 7 days. The DA uptake and the superoxide production were measured as in Example 1 and 5.
Neuron-glia cell cultures were prepared as in Example 1, and pretreated with the various peptide fragments of Table 1 (peptide fragments were obtained from BACHEM) for 30 minutes followed by addition of 5 ng/ml of LPS. DA neurotoxicity was measured as an Example 1 at 7 days post treatment.
DA neurotoxicity was measured at 7 days post treatment as in Example 1. Dopaminergic neuronal death was determined at 7 days post treatment using immunocytochemical staining as in Example 2.
Neuron-glia cultures were prepared from the ventral mesencephalic tissues of embryonic day 13-14 rats. Dissociated cells were seeded at 1×10^5/well and 5×10^5/well to poly-D-lysine-coated 96-well and 24-well plates, respectively.

[5] = test system: TH-IR (dopaminergic) neurons in mesencephalic neuron-glia cultures; experiment: TH-IR neuron count and morphology in LPS-treated neuron-glia cultures; type: cell-based, rat; conditions: LPS 5 ng/ml; for concentration of peak protection against LPS-induced DA neuron cell loss: 10^−12-10^−16 M tested; for LPS-induced damage of TH immuno-reactive neurons: 10^−14 M
gp91/p22 = molecular target: T1, gp91/p22 (Homo sapiens, UniProt P04839); experiment: [3H]naloxone binding to COS-7 cells transfected with gp91/p22; conditions: COS-7 gp91/p22 cells, [3H]naloxone 2 nM, displaced with 10 μM cold naloxone
T1 construct: expressed in transfected cells; host or cells: COS-7 (stably transfected); intact cells or membrane preparations
T1 sequence (P04839 whole entry): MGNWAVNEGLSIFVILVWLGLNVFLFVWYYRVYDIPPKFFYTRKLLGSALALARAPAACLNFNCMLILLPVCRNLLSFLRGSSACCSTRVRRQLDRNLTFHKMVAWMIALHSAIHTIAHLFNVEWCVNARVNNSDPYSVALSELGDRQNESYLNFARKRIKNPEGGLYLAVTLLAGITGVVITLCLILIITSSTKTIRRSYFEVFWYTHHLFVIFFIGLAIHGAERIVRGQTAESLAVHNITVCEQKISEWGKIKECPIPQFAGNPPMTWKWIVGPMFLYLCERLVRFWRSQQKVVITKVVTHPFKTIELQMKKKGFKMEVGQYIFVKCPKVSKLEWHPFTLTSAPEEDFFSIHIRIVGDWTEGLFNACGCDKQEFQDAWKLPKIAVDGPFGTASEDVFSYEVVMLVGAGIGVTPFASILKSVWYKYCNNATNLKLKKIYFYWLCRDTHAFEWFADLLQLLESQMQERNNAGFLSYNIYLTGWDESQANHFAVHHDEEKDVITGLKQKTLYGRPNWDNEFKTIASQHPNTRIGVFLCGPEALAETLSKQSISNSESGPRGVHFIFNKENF
T1 sequence (P13498 whole entry partner): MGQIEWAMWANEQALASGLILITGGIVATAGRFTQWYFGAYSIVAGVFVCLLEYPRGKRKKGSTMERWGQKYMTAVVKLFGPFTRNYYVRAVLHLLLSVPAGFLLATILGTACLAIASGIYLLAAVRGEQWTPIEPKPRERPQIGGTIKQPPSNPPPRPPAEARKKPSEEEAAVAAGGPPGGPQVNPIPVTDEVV
Protocol: Binding affinities of naloxone for COS-7 cells transfected with gp91/p22 was determined using either [^3H]-(+)Naloxone or [^3H]-(−)Naloxone (2 nM; PerkinEhner Life Sciences) as ligands and displaced with 10 μM of cold (−) Naloxone in HBBS containing 0.1% (W/V) fatty acids free albumin (lot B22558, Calbiochem). COS-7 cells transfected with gp91/p22 and COS-7 cells that were not transfected (WT) were detached using Versene (1:5000, GibcoBRL, Life technologies). For intact cell assays, after washing twice with HBSS, cells were transferred to micro centrifuge tubes at 10^6 cells per tube.
To acquire membrane preparations, cells were lysed in buffer ([…] Tris, pH=7.4, 2 mM EDTA, 10 μg/ml CLAP) and homogenized. Lysate was transferred to a 50 ml conical tube, where there were centrifuged at 250 g for about 10 minutes at about 4 C. The supernatant was then transferred to another tube and spun at 100,000 G for about 90 minutes. The supernatant was then discarded and the protein pellet was re-suspended in 2 ml of lysis buffer. […]
All competition reactions of either intact cells or membrane preparations were allowed to proceed at 4° C. […] After washing with HBSS four times, the filters were collected and radioactivity retained on the filters was determined by liquid Scintillation counting. All values are expressed as percentages relative to the binding capacity of the wild type control.

[6] = PHOX−/− mice, 30 min pretreatment
[7] = control (PHOX+/+) mice, 10^−14 M

Compound: glycine-glycine-phenylalanine [GGF]
- microglial superoxide response (superoxide): nearly control levels
- neuroprotection (DA uptake) [1]: failed to show neuroprotection
- neuroprotection against LPS-induced neurodegeneration [2]: minimal peptide sequence required for neuroprotection
- reduction of intracellular ROS concentrations [3]: 65%
- TNFα reduction in response to LPS (TNFα; [6]): failed to show any TNFα reduction
- TNFα reduction in response to LPS (TNFα; [7]): showed a reduction of TNFα
- concentration of greatest level of protection (DA uptake) [4]: 10^−14 M
- enhancement of [3H]DA uptake after exposure to LPS [4]: approximately 35%
- concentration of peak protection against LPS-induced DA neuron cell loss [5]: 10^−14 M
- LPS-induced damage of TH immuno-reactive neurons [5]: protected TH immuno-reactive neurons from LPS-induced damage

Compound: C=CCN1CC[C@]23c4c5ccc(O)c4O[C@H]2C(=O)CC[C@@]3(O)[C@H]1C5 [naloxone, (5α)-4,5-Epoxy-3,14-dihydroxy-17-(2-propenyl)morphinan-6-one]
- microglial superoxide response (superoxide): nearly control levels
- neuroprotection (DA uptake) [1]: failed to show neuroprotection
- binding capacity relative to control COS-7 cells (gp91/p22): 150-180%
- reduction of intracellular ROS concentrations [3]: 65%
- TNFα reduction in response to LPS (TNFα; [6]): failed to show any TNFα reduction
- TNFα reduction in response to LPS (TNFα; [7]): showed a reduction of TNFα
- concentration of greatest level of protection (DA uptake) [4]: 10^−14 M
- enhancement of [3H]DA uptake after exposure to LPS [4]: approximately 35%
- concentration of peak protection against LPS-induced DA neuron cell loss [5]: 10^−14 M
- LPS-induced damage of TH immuno-reactive neurons [5]: protected TH immuno-reactive neurons from LPS-induced damage
